Measurements as given in patent publication US20220380341A1, “INHIBITORS OF HIV-1 NEF FOR THE TREATMENT OF HIV DISEASE” (priority 2018, published 2022).
Where two headings read alike, the source gives them in different places.

Columns and labels:
[1] = tested on: HIV-1NL4-3; assay: HIV-1 infectivity assay in TZM-bl reporter cell line (LTR-luciferase, 48 h); assay type: cell-based; conditions: Human immunodeficiency virus 1, TZM-bl
In short: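 Percent inhibition of HIV-1NL4-3 infectivity at 1 μM compound, from luciferase output of TZM-bl cells 48 h after infection. Scale anchors are DMSO-treated wild-type infection as zero and DMSO-treated Nef-defective infection as full Nef-dependent effect.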

[2] = tested on: TZM-bl cell line; assay type: cell-based; conditions: human, 1 μM
In short: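 Nef-dependent infectivity in TZM-bl cells: HIV-1NL4-3 infection with 1 μM compound, luciferase read at 48 h, normalized against DMSO wild-type and Nef-defective controls. Compound cytotoxicity in uninfected cells measured by Cell Titer Blue.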

[3] = target: HIV-1 NefNL4-3 (Human immunodeficiency virus type 1 group M subtype B, UniProt P03406, A33V/T15A/T51N/V11I); assay: Surface plasmon resonance binding to recombinant full-length Nef (NL4-3); conditions: for RU30/RUNef (extent of binding): response units at 30 μM relative to Nef immobilized on the SPR chip
[4] = 48 h, Table 1, TZM-bl cells, 1 μM, 48 h, 100% = Nef-defective HIV-1, read-out: HIV-1 Infectivity % Inhibition Norm. to Δ-Nef @ 1 μM
[5] = 1.0 μM, TZM-bl reporter cell line, Table 4, read-out: % Infectivity Inhibition
[6] = KD, M, Table 4, SPR fit 1:1 Langmuir, KD = koff/kon
[7] = Table 4, 1:1 Langmuir fit, T = 1/koff
[8] = KD, M, Table 4, SPR fit 2-step induced fit, KD = koff/kon × koff2/(koff2 + kon2)
[9] = Nef NL4-3 Binding, SPR 2-state fitting KD, Table 1, 2-step induced-fit model
[10] = Table 4, 2-step induced fit, T = 1/koff2
[11] = read-out: Nef NL4-3 Binding, SPR 1:1 or 2-site fitting KD2, Table 1, 2-site fit, second component

SMILES | inhibition at 1 µM [1, 4] | Percent Viability @ 1 μM (TZM-bl cells) [2] | Kd [3] | inhibition at 1 µM [1, 5] | % Cell Viability [2] | Kd [3, 6] | T, minutes (residence time) [3, 7] | RU30/RUNef (extent of binding) [3] | Kd [3, 8] | Kd [3, 9] | T, minutes (residence time) [3, 10] | Kd [3, 11] | Kd ([3]; Nef NL4-3 Binding, SPR 1:1 or 2-site fitting KD2, Table 1, 2-site fit, second component) | Nef NL4-3 Binding, SPR 1:1 or 2-site fitting KD1 ([3]; Table 1, 1:1 Langmuir fit where the KD2 cell says '1 to 1 fitting', else 2-site fit)
COC(=O)N1CCC(c2nn(-c3nc4cc(Cl)ccc4[nH]3)c(O)c2CCn2nccn2)CC1 [Compound I-705, methyl 4-[1-(5-chloro-1H-1,3-benzodiazol-2-yl)-5-hydroxy-4-[2-(2H-1,2,3-triazol-2-yl)ethyl]-1H-pyrazol-3-yl]piperidine-1-carboxylate] | -13.8% | 100.9% | 1110 nM |  |  |  |  |  |  |  |  |  |  | 
CS(=O)(=O)N1CCC(c2nn(-c3nc4cc(Cl)ccc4[nH]3)c(O)c2CCC2CCOCC2)CC1 [Compound I-706, 1-(5-chloro-1H-1,3-benzodiazol-2-yl)-3-(1-methanesulfonylpiperidin-4-yl)-4-[2-(oxan-4-yl)ethyl]-1H-pyrazol-5-ol] | 9.8% | 98.6% | 1170 nM | 9.8% | 98.6% | 1170 nM | 3.95E + 00 minutes | 2.34E- 03 |  |  |  |  |  | 
CS(=O)(=O)N1CCC(c2nn(-c3nc4cc(Cl)ccc4[nH]3)c(O)c2CCn2nccn2)CC1 [Compound I-707, 1-(5-chloro-1H-1,3-benzodiazol-2-yl)-3-(1-methanesulfonylpiperidin-4-yl)-4-[2-(2H-1,2,3-triazol-2-yl)ethyl]-1H-pyrazol-5-ol] | -10.6% | 109.3% | 1980 nM | 0% | 100% | 1980 nM | 4.33E + 00 minutes | 1.81E- 03 |  |  |  |  |  | 
COC(=O)N1CCC(CCc2c(-c3ccc(C(F)(F)F)cn3)nn(-c3nc4cc(Br)ccc4[nH]3)c2O)CC1 [Compound I-708, methyl 4-{2-[1-(5-bromo-1H-1,3-benzodiazol-2-yl)-5-hydroxy-3-[5-(trifluoromethyl)pyridin-2-yl]-1H-pyrazol-4-yl]ethyl}piperidine-1-carboxylate] | 117% | 77.8% | 1.4 nM | 100% | 77.8% | 1.4 nM | 1.00E + 04 minutes | 2.04E- 03 |  |  |  |  |  | 
CC(=O)N1CCC(CCc2c(-c3ccc(C(F)(F)F)cn3)nn(-c3nc4cc(Br)ccc4[nH]3)c2O)CC1 [Compound I-709, 1-(4-{2-[1-(5-bromo-1H-1,3-benzodiazol-2-yl)-5-hydroxy-3-[5-(trifluoromethyl)pyridin-2-yl]-1H-pyrazol-4-yl]ethyl}piperidin-1-yl)ethan-1-one] | 66.7% | 74.0% | 26.3 nM | 66.7% | 74.0% | 26.3 nM | 5.18E + 02 minutes | 8.85E- 04 |  |  |  |  |  | 
O=C(c1ccc(F)cc1)N1CCC(CCc2c(C3CC3)nn(-c3nc4cc(Cl)ccc4[nH]3)c2O)CC1 [Compound I-710, 1-(5-chloro-1H-1,3-benzodiazol-2-yl)-3-cyclopropyl-4-{2-[1-(4-fluorobenzoyl)piperidin-4-yl]ethyl}-1H-pyrazol-5-ol] | 2.5% | 106.9% |  | 2.5% | 100% |  |  | 2.12E- 02 | 2460 nM | 2460 nM | 4.16E + 00 minutes | 9780 nM |  | 
O=C(C1CC1)N1CCC(CCc2c(C3CC3)nn(-c3nc4cc(Cl)ccc4[nH]3)c2O)CC1 [Compound I-711, 1-(5-chloro-1H-1,3-benzodiazol-2-yl)-4-[2-(1-cyclopropanecarbonylpiperidin-4-yl)ethyl]-3-cyclopropyl-1H-pyrazol-5-ol] | -0.4% | 97.2% |  | 0% | 97.2% |  |  | 1.96E- 02 | 3290 nM | 3290 nM | 5.97E + 00 minutes | 8640 nM |  | 
CC(=O)N1CCC(c2c(-c3ccc(C(F)(F)F)cc3)nn(-c3nc4ccccc4[nH]3)c2O)CC1 [Compound I-713, 1-{4-[1-(1H-1,3-benzodiazol-2-yl)-5-hydroxy-3-[4-(trifluoromethyl)phenyl]-1H-pyrazol-4-yl]piperidin-1-yl}ethan-1-one] | 27.8% | 76.8% | 378000 nM |  |  |  |  |  |  |  |  |  |  | 
CC(=O)N1CCC(CCc2c(-c3ccc(C(F)(F)F)cn3)nn(-c3nc4ccccc4[nH]3)c2O)CC1 [Compound I-714, 1-(4-{2-[1-(1H-1,3-benzodiazol-2-yl)-5-hydroxy-3-[5-(trifluoromethyl)pyridin-2-yl]-1H-pyrazol-4-yl]ethyl}piperidin-1-yl)ethan-1-one] | 63.6% | 98.3% | 1110 nM | 63.6% | 98.3% | 1110 nM | 3.64E + 00 minutes | 1.32E- 03 |  |  |  |  |  | 
COC(=O)N1CCC(CCc2c(-c3ccc(C(F)(F)F)cn3)nn(-c3nc4ccccc4[nH]3)c2O)CC1 [Compound I-715, methyl 4-{2-[1-(1H-1,3-benzodiazol-2-yl)-5-hydroxy-3-[5-(trifluoromethyl)pyridin-2-yl]-1H-pyrazol-4-yl]ethyl}piperidine-1-carboxylate] | 25.2% | 99.1% | 686 nM | 25.2% | 99.1% |  |  | 5.47E- 03 | 2510 nM | 2510 nM | 3.76E + 00 minutes |  | 1330 nM | 
CS(=O)(=O)N1CCC(CCc2c(-c3ccc(C(F)(F)F)cn3)nn(-c3nc4ccccc4[nH]3)c2O)CC1 [Compound I-716] | 22.8% | 97.1% | 1970 nM | 22.8% | 97.1% |  |  | 5.13E- 03 | 4370 nM | 4370 nM | 3.22E + 00 minutes |  |  | 
CC(C)OC(=O)N1CCC(CCc2c(-c3ccc(Br)cn3)nn(-c3nc4ccccc4[nH]3)c2O)CC1 [Compound I-717, propan-2-yl4-{2-[1-(1H-1,3-benzodiazol-2-yl)-3-(5-bromopyridin-2-yl)-5-hydroxy-1H-pyrazol-4-yl]ethyl}piperidine-1-carboxylate] | -1.8% | 104.1% |  |  |  |  |  |  |  |  |  |  |  | No Interaction
CS(=O)(=O)N1CCC(Cc2c(-c3ccc(C(F)(F)F)cc3)nn(-c3nc4ccccc4[nH]3)c2O)CC1 [Compound I-718, 1-(1H-1,3-benzodiazol-2-y1)-4-[(1-methanesulfonylpiperidin-4-yl)methyl]-3-[4-(trifluoromethyl)phenyl]-1H-pyrazol-5-ol] | 56.3% | 89.1% | 597 nM | 56.3% | 89.1% | 597 nM | 3.62E + 00 minutes | 1.22E- 03 |  |  |  |  |  | 
